target: T1, recombinant human NK3 receptor (Homo sapiens, UniProt P29371); test: [3H]SR142801 competition binding assay; conditions: membrane from HEK293 cells transiently expressing recombinant human NK3 receptor; radioligand [3H]SR142801; 75 min at RT
T1 construct: expressed in transfected cells; host or cells: HEK293 cells (transient expression), membrane preparation
T1 sequence (P29371 1-465): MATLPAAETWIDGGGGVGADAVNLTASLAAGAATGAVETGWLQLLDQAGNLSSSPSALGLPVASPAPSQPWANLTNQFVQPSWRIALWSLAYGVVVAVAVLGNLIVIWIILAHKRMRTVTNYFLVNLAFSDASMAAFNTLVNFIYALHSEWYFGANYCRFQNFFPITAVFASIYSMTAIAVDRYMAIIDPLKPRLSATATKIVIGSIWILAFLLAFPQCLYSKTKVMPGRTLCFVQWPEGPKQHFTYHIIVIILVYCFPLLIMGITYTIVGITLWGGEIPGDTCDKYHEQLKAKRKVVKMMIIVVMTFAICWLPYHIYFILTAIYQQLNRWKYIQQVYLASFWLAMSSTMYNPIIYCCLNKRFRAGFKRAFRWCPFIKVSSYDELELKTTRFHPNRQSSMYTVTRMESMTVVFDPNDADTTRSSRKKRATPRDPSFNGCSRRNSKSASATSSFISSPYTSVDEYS
Method: [^3H]SR142801 Competition Binding Assay
hNK3 receptor binding experiment were performed using [^3H]SR142801 (Catalog No. TRK1035, specific activity: 74.0 Ci/mmol, Amersham, GE Healthcare UK limited, Buckinghamshire, UK) and membrane isolated from HEK293 cells transiently expressing recombinant human NK3 receptor. After thawing, the membrane homogenates were centrifuged at 48,000×g for 10 min at 4° C., the pellets were resuspended in the 50 mM Tris-HCl, 4 mM MnCl2, 1 μM phosphoramidon, 0.1% BSA binding buffer at pH 7.4 to a final assay concentration of 5 μg protein/well. […] At the end of the incubation, membranes were filtered onto unitfilter (96-well white microplate with bonded GF/C filter preincubated 1 h in 0.3% PEI+0.3% BSA, Packard BioScience, Meriden, Conn.) with a Filtermate 196 harvester (Packard BioScience) and washed 4 times with ice-cold 50 mM Tris-HCl, pH 7.4 buffer. Nonspecific binding was measured in the presence of 10 μM SB222200 for both radioligands. The radioactivity on the filter was counted (5 min) on a Packard Top-count microplate scintillation counter with quenching correction after addition of 45 μl of microscint 40 (Canberra Packard S.A., Zürich, Switzerland) and shaking for 1 h. Inhibition curves were fitted according to the Hill equation: y=100/(1+(x/IC50)^nH), where nH=slope factor using Excel-fit 4 software (Microsoft). IC50 values were derived from the inhibition curve and the affinity constant (Ki) values were calculated using the Cheng-Prussoff equation Ki=IC50/(1+[L]/KD) where [L] is the concentration of radioligand and KD is its dissociation constant at the receptor, derived from the saturation isotherm. All experiments were performed in duplicate and the mean±standard error (SEM) of the individual Ki values was calculated.

Structure (SMILES) | Ki
CC(C)Oc1ccc2c(O)nc(N3CCC(Cc4ccccc4)(C(=O)NCc4ccccc4)CC3)nc2c1 [Example 96, 4-Benzyl-1-(4-hydroxy-7-isopropoxy-quinazolin-2-yl)-piperidine-4-carboxylic acid benzylamide] | 11.2 nM
COc1cc2nc(N3CCC(Cc4ccccc4)(C(=O)NCc4ccccc4)CC3)nc(N(C)C)c2cc1OC [Example 14, 4-Benzyl-1-(4-dimethylamino-6,7-dimethoxy-quinazolin-2-yl)-piperidine-4-carboxylic acid benzylamide] | 73.2 nM
COc1cc2nc(N3CCC(Cc4ccccc4)(C(=O)NCc4cccnc4)CC3)nc(O)c2cc1OC [Example 2, 4-Benzyl-1-(4-hydroxy-6,7-dimethoxy-quinazolin-2-yl)-piperidine-4-carboxylic acid (pyridin-3-ylmethyl)-amide] | 66.1 nM
COc1cc2nc(N3CCC(Cc4ccccc4)(C(=O)N(C)C4Cc5ccccc5C4)CC3)nc(O)c2cc1OC [Example 57, 4-Benzyl-1-(4-hydroxy-6,7-dimethoxy-quinazolin-2-yl)-piperidine-4-carboxylic acid indan-2-yl-methyl-amide] | 62.8 nM
COc1cc2nc(N3CCC(CC4CCC4)(C(=O)NCc4ccccc4)CC3)nc(O)c2cc1OC [Example 76, 4-Cyclobutylmethyl-1-(4-hydroxy-6,7-dimethoxy-quinazolin-2-yl)-piperidine-4-carboxylic acid benzylamide] | 5.8 nM
COc1cc2c(O)nc(N3CCC(Cc4ccccc4)(C(=O)NCc4ccccc4)CC3)nc2cc1OC(C)C [Example 92, 4-Benyzl-1-(4-hydroxy-7-isopropoxy-6-methoxy-quinazolin-2-yl)-piperidine-4-carboxylic acid benzylamide] | 21.5 nM
COc1cc2nc(N3CCC(Cc4ccccc4)(C(=O)N4CCCC4c4ccccc4)CC3)nc(N)c2cc1OC (stereo not shown) [Example 47, [1-(4-Amino-6,7-dimethoxy-quinazolin-2-yl)-4-benzyl-piperidin-4-yl]-(2-phenyl-pyrrolidin-1-yl)-methanone] | 46.7 nM
O=C(NCc1ccccc1)C1(Cc2ccccc2)CCN(c2nc(O)c3ccc(OC(F)(F)F)cc3n2)CC1 [Example 99, 4-Benzyl-1-(4-hydroxy-7-trifluoromethoxy-quinazolin-2-yl)-piperidine-4-carboxylic acid benzylamide] | 4.9 nM
COc1cc2nc(N3CCC(Cc4ccccc4)(C(=O)NC4CCCc5ccccc54)CC3)nc(N)c2cc1OC (stereo not shown) [Example 23, 1-(4-Amino-6,7-dimethoxy-quinazolin-2-yl)-4-benzyl-piperidine-4-carboxylic acid (1,2,3,4-tetrahydro-naphthalen-1-yl)-amide] | 46.6 nM
COc1cc2nc(N3CCC(Cc4ccccc4)(C(=O)NC4CCCC4)CC3)nc(O)c2cc1OC [Example 53, 4-Benzyl-1-(4-hydroxy-6,7-dimethoxy-quinazolin-2-yl)-piperidine-4-carboxylic acid cyclopentylamide] | 25.4 nM
O=C(NCc1ccccc1)C1(Cc2ccccc2)CCN(c2nc(O)c3cc(F)c(Cl)cc3n2)CC1 [Example 16, 4-Benzyl-1-(7-chloro-6-fluoro-4-hydroxy-quinazolin-2-yl)-piperidine-4-carboxylic acid benzylamide] | 34.7 nM
COc1cc2nc(N3CCC(CC(C)C)(C(=O)NCc4ccccc4)CC3)nc(N)c2cc1OC [Example 70, 1-(4-Amino-6,7-dimethoxy-quinazolin-2-yl)-4-isobutyl-piperidine-4-carboyxlic acid benzylamide] | 64 nM
COc1cc2nc(N3CCC(Cc4ccccc4)(C(=O)NCc4ccccc4)CC3)nc(O)c2cc1Cl [Example 93, 4-Benzyl-1-(6-chloro-4-hydroxy-7-methoxy-quinazolin-2-yl)-piperidine-4-carboxylic acid benzylamide] | 9.2 nM
COc1cc2nc(N3CCC(Cc4ccccc4)(C(=O)NCc4cccnc4)CC3)nc(N)c2cc1OC [Example 1, 1-(4-Amino-6,7-dimethoxy-quinazolin-2-yl)-4-benzyl-piperidine-4-carboxylic acid (pyridin-3-ylmethyl)-amide] | 90.9 nM
COc1cc2nc(N3CCC(CC4CCC4)(C(=O)N(C)Cc4ccccc4)CC3)nc(O)c2cc1OC [Example 80, 4-Cyclobutylmethyl-1-(4-hydroxy-6,7-dimethoxy-quinazolin-2-yl)-piperidine-4-carboxylic acid benzyl-methyl-amide] | 7.6 nM
COc1cc2nc(N3CCC(Cc4ccccc4)(C(=O)NC4Cc5ccccc5C4O)CC3)nc(N)c2cc1OC (stereo not shown) [Example 38, 1-(4-Amino-6,7-dimethoxy-quinazolin-2-yl)-4-benzyl-piperidine-4-carboxylic acid (1-hydroxy-indan-2-yl)-amide] | 7.5 nM
CC(C)Oc1ccc2nc(N3CCC(Cc4ccccc4)(C(=O)NCc4ccccc4)CC3)nc(O)c2c1 [Example 83, 4-Benzyl-1-(4-hydroxy-6-isopropoxy-quinazolin-2-yl)-piperidine-4-carboxylic acid benzylamide] | 97.5 nM
COc1cc2nc(N3CCC(Cc4ccccc4)(C(=O)NC4Cc5ccccc5C4)CC3)nc(O)c2cc1OC [Example 55, 4-Benzyl-1-(4-hydroxy-6,7-dimethoxy-quinazolin-2-yl)-piperidine-4-carboxylic acid indan-2-ylamide] | 11.1 nM
COc1cc2nc(N3CCC(CC4CCC4)(C(=O)NC4CCc5ccccc5C4)CC3)nc(O)c2cc1OC (stereo not shown) [Example 77, 4-Cylcobutylmethyl-1-(4-hydroxy-6,7-dimethoxy-quinazolin-2-yl)-piperidine-4-carboxylic acid (1,2,3,4-tetrahydro-naphthalen-2-yl)-amide] | 36.2 nM
COc1cc2nc(N3CCC(Cc4ccccc4)(C(=O)NCc4ccccc4)CC3)nc(O)c2cc1F [Example 88, 4-Benzyl-1-(6-fluoro-4-hydroxy-7-methoxy-quinazolin-2-yl)-piperidine-4-carboxylic acid benzylamide] | 9.3 nM
O=C(NCc1ccccc1)C1(Cc2ccccc2)CCN(c2nc(O)c3ccc(C(F)(F)F)cc3n2)CC1 [Example 98, 4-Benzyl-1-(4-hydroxy-7-trifluoromethyl-quinazolin-2-yl)-piperidine-4-carboxylic acid benzylamide] | 6.1 nM
COc1cc2nc(N3CCC(Cc4ccccc4)(C(=O)NCC4CCC4)CC3)nc(O)c2cc1OC [Example 67, 4-Benzyl-1-(4-hydroxy-6,7-dimethoxy-quinazolin-2-yl)-piperidine-4-carboxylic acid cyclobutylmethyl-amide] | 47.9 nM
COc1cc2nc(N3CCC(Cc4ccccc4)(C(=O)NCc4ccc(Cl)c(Cl)c4)CC3)nc(N)c2cc1OC [Example 28, 1-(4-Amino-6,7-dimethoxy-quinazolin-2-yl)-4-benzyl-piperidine-4-carboxylic acid 3,4-dichloro-benzylamide] | 52.4 nM
COc1cc2nc(N3CCC(Cc4ccccc4)(C(=O)NC(CO)c4ccccc4)CC3)nc(N)c2cc1OC (stereo not shown) [Example 41, 1-(4-Amino-6,7-dimethoxy-quinazolin-2-yl)-4-benzyl-piperidine-4-carboxylic acid (2-hydroxy-1-phenyl-ethyl)-amide] | 48.7 nM
COc1cc2nc(N3CCC(CC4CCC4)(C(=O)NC4CCCC4)CC3)nc(O)c2cc1OC [Example 78, 4-Cyclobutylmethyl-1-(4-hydroxy-6,7-dimethoxy-quinazolin-2-yl)-piperidine-4-carboxylic acid cyclopentylamide] | 66 nM
O=C(NCc1ccccc1)C1(Cc2ccccc2)CCN(c2nc(O)c3ccc(OC(F)F)cc3n2)CC1 [Example 89, 4-Benzyl-1-(7-difluoromethoxy-4-hydroxy-quinazolin-2-yl)-piperidine-4-carboxylic acid benzylamide] | 11.5 nM
COc1cc2nc(N3CCC(Cc4ccccc4)(C(=O)NC4CCc5ccccc5C4)CC3)nc(N)c2cc1OC (stereo not shown) [Example 40, 1-(4-Amino-6,7-dimethoxy-quinazolin-2-yl)-4-benzyl-piperidine-4-carboxylic acid (1,2,3,4-tetrahydro-naphthalen-2-yl)-amide] | 10.1 nM
COc1cc2nc(N3CCC(Cc4ccccc4)(C(=O)NC4CCc5ccccc54)CC3)nc(N)c2cc1OC (stereo not shown) [Example 44, 1-(4-Amino-6,7-dimethoxy-quinazolin-2-yl)-4-benzyl-piperidine-4-carboxylic acid indan-1-ylamide] | 5.4 nM

Reference: patent publication US8318749B2, “Quinazoline derivatives as NK3 receptor antagonists” (Hoffmann-La Roche Inc., priority 2008, dated 2012)
